From patent publication US8163705B2, “Glycolipid and use thereof” (Riken, priority 2006, dated 2012)

Tests used:
[1] = test system: Splenocytes from a mouse spleen; test: Experimental Example 1: cytokine (IFN-γ, IL-4) production by mouse splenocytes, sandwich ELISA of culture supernatant; format: cell-based; conditions: mouse splenocytes 2×10^5 cells/well, reagent 40 ng/mL, 72 hours, FIG. 1
Protocol: Splenocytes from a mouse spleen were prepared using an RPMI1640 culture broth (produced by Sigma) containing 10% Fetal calf serum (FCS) at 2×10^5 cells/well (96-well plate). A reagent was added to this culture broth at a concentration of 40 ng/mL; 3 days later (72 hours later), the cytokine content in the culture supernatant was measured by a sandwich ELISA technique. The test substances used were compound 11, compound 12 and compound 13 as obtained in Examples 1 to 3, with a compound represented by the following formula (a) (α-GalCer, hereinafter referred to as “compound a”) used as the comparator.
(§1) These findings confirm that the compounds of the present invention are effective as therapeutic drugs for pathologic conditions that can be ameliorated by IL-4.

[2] = test system: Splenocytes taken out from a mouse spleen; test: Experimental Example 2: cytokine (IFN-γ, IL-4) production by mouse splenocytes, sandwich ELISA of culture supernatant; format: cell-based; conditions: reagent 20 ng/mL, 48 hours, FIG. 2; for IFN-γ production amount and IL-4 production amount (cytokine production pattern): mouse splenocytes 2×10^5 cells/well, culture supernatant; for IL-4-predominant cytokine production compared with compound b (OCH): mouse splenocytes
Protocol: Splenocytes taken out from a mouse spleen were prepared using an RPMI1640 culture broth (produced by Sigma) containing 10% Fetal calf serum (FCS) at 2×10^5 cells/well (96-well plate). A reagent was added to this culture broth at a concentration of 20 ng/mL; 2 days later (48 hours later), the cytokine content in the culture supernatant was measured by a sandwich ELISA technique. The test substances used were compound 11, compound 12, compound 13 and compound 48 as obtained in Examples 1 to 3 and Reference Example, with compound a and a compound represented by the following formula (b) (OCH, hereinafter referred to as compound b) used as the comparators.
as §1

[3] = test system: Splenocytes taken out from a mouse spleen; conditions: stated as known; cited from earlier work

CCCCCCCCCCCCCC[C@@H](O)[C@@H](O)[C@H](CO[C@H]1O[C@H](CO)[C@H](O)[C@H](O)[C@H]1O)NS(=O)(=O)c1ccc(C)cc1 [compound 11, (2S,3S,4R)-1-(α-D-galactopyranosyloxy)-2-(p-toluenesulfonylamino)-3,4-octadecanediol]
IFN-γ production amount and IL-4 production amount (cytokine production pattern) [1]: IL-4-predominant cytokine production pattern | IFN-γ production amount and IL-4 production amount (cytokine production pattern) [2]: IL-4-predominant cytokine production pattern with smaller amounts of IFN-γ produced | IL-4-predominant cytokine production compared with compound b (OCH) [2]: capable of inducing IL-4-predominant cytokine production to higher extents than compound b

CCCCCCCCCCCCCC[C@@H](O)[C@@H](O)[C@H](CO[C@H]1O[C@H](CO)[C@H](O)[C@H](O)[C@H]1O)NS(=O)(=O)c1ccccc1C [compound 12, (2S,3S,4R)-1-(α-D-galactopyranosyloxy)-2-(o-toluenesulfonylamino)-3,4-octadecanediol]
IFN-γ production amount and IL-4 production amount (cytokine production pattern) [1]: IL-4-predominant cytokine production pattern | IFN-γ production amount and IL-4 production amount (cytokine production pattern) [2]: IL-4-predominant cytokine production pattern with smaller amounts of IFN-γ produced | IL-4-predominant cytokine production compared with compound b (OCH) [2]: capable of inducing IL-4-predominant cytokine production to higher extents than compound b

CCCCCCCCCCCCCC[C@@H](O)[C@@H](O)[C@H](CO[C@H]1O[C@H](CO)[C@H](O)[C@H](O)[C@H]1O)NS(=O)(=O)c1cccc(C)c1 [compound 13, (2S,3S,4R)-1-(α-D-galactopyranosyloxy)-2-(m-toluenesulfonylamino)-3,4-octadecanediol]
IFN-γ production amount and IL-4 production amount (cytokine production pattern) [1]: IL-4-predominant cytokine production pattern | IFN-γ production amount and IL-4 production amount (cytokine production pattern) [2]: IL-4-predominant cytokine production pattern with smaller amounts of IFN-γ produced | IL-4-predominant cytokine production compared with compound b (OCH) [2]: capable of inducing IL-4-predominant cytokine production to higher extents than compound b

CCCCCCCCCCCCCCCCS(=O)(=O)N[C@@H](CO[C@H]1O[C@H](CO)[C@H](O)[C@H](O)[C@H]1O)[C@H](O)[C@H](O)CCCCCCCCCCCCCC [compound 48, (2S,3S,4R)-1-(α-D-galactopyranosyloxy)-2-(hexadecanesulfonylamino)-3,4-octadecanediol]
IFN-γ production amount and IL-4 production amount (cytokine production pattern) [2]: IL-4-predominant cytokine production pattern with smaller amounts of IFN-γ produced | IL-4-predominant cytokine production compared with compound b (OCH) [2]: capable of inducing IL-4-predominant cytokine production to higher extents than compound b

CCCCCCCCCCCCCCCCCCCCCCCCCC(=O)N[C@@H](COC1OC(CO)C(O)C(O)C1O)[C@H](O)[C@H](O)CCCCCCCCCCCCCC (some centres unmarked) [compound a, reference compound]
IFN-γ production amount and IL-4 production amount (cytokine production pattern) [1]: produced both IFN-γ and IL-4 in large amounts | IFN-γ production amount and IL-4 production amount (cytokine production pattern) [2]: produced both IFN-γ and IL-4 in large amounts

CCCCCCCCCCCCCCCCCCCCCCCC(=O)N[C@@H](COC1OC(CO)C(O)C(O)C1O)[C@H](O)[C@H](O)CCCCC (some centres unmarked) [compound b]
cytokine production pattern as known for the comparator [3]: induces IL-4-predominant cytokine production
